Bounds are passed on as bounds.

Data set [1] has as its system Human immunodeficiency virus 1. Nature of the data set: Antiviral activity against HIV-1 HXB-2 infected in human TZM-bl cells assessed as reduction in viral infection pretreated for 30 mins before viral infection and measured after 3 days by luciferase based single cycle infection assay. The note with it: Human immunodeficiency virus 1, M:B_HXB2R. The format is functional, organism-based.

The test system of the next data set is TZM. Nature of the data set: Cytotoxicity against human TZM-bl cells assessed as reduction in cell viability incubated for 3 days by XTT assay. The class given is cell-based. The note with it: tzm, 72 h, time 3 day. Background: Tetrazolium assays rely on reduction of a dye to a coloured formazan, in cell work by metabolically active cells.
A short description of data set [2]: Antiviral activity against HIV-1 3B infected in human MT2 cells assessed as reduction in viral infection pretreated for 30 mins before viral infection and measured after 4 days by ELISA based multi cycle infection assay. The format is functional, cell-based. The note with it: Human immunodeficiency virus 1, M:B_HXB2R. A general note: An ELISA detects its analyte on a solid surface through an enzyme-linked reagent.

A further data set has as its system MT2. Kind of data set: Cytotoxicity against human MT2 cells assessed as reduction in cell viability incubated for 4 days by XTT assay. The note with it: mt2, 96 h, time 4 day. The format is cell-based.

As usually defined, the IC50 is the concentration needed to halve the response being measured. Usually CC50 stands for the concentration at which the toxic effect on the cells reaches its halfway point. For the molecule `NC[C@@H](NC(=O)c1ccc(-c2ccc(C(F)(F)F)cc2)[nH]1)c1nc(CO)cs1`, the IC50 in data set [1] came out at 0.9 µM; in data set [2], 1.75 µM. The CC50 in the data set with TZM was found to be 27.6 µM; in the data set on MT2, 15.1 µM.
As to `Cc1c(F)cc(-c2ccc(C(=O)N[C@H](CN)c3nc(CO)cs3)[nH]2)cc1F`, the IC50 came out at 0.54 µM in data set [1] and 0.6 µM in data set [2]. The CC50 in the data set with TZM is 20.6 µM; with MT2, 15.9 µM.
In the case of `CC(C)(O)c1csc([C@@H](CN)NC(=O)c2ccc(-c3cc(F)c(Cl)c(F)c3)[nH]2)n1`, the results for the IC50 in data set [1] and in data set [2] were 0.56 µM and 0.8 µM, respectively. In addition, the CC50 in the data set with TZM worked out at 27.2 µM; with MT2, 18 µM.
Turning to `NC[C@H](NC(=O)c1ccc(-c2cc(F)c(Cl)c(F)c2)[nH]1)c1nc(CO)c(CO)s1`, the IC50 came to 2.3 µM in data set [1] and 3 µM in data set [2]. The CC50 is above 70 µM in the data set with TZM and 96.7 µM with MT2.
On the same counts, the results for `NC[C@@H](NC(=O)c1ccc(-c2ccc(C(F)(F)F)c(F)c2)[nH]1)c1ncc(CO)s1` are 0.2 µM, 0.24 µM, 18.5 µM and 21.5 µM.
On the same counts, the results for `CNC[C@@H](NC(=O)c1ccc(-c2ccc(C(F)(F)F)cc2)[nH]1)c1nc(CO)cs1` are 0.62 µM, 0.6 µM, 23.5 µM and 19.8 µM.
As for `NC[C@@H](NC(=O)c1ccc(-c2ccc(C(F)(F)F)c(F)c2)[nH]1)c1nc(CO)cs1`, the results for the CC50 with TZM and in the data set on MT2 were 17.3 µM and 20.5 µM, respectively.
For the molecule `NC[C@@H](NC(=O)c1ccc(-c2cc(F)c(Cl)c(F)c2)[nH]1)c1nc(CO)c(CO)s1`, the IC50 in data set [1] is 2.7 µM; in data set [2], 3.34 µM. Also, the CC50 with TZM amounted to 53 µM; with MT2, 89.9 µM.
Turning to `Cc1c(F)cc(-c2ccc(C(=O)N[C@@H](CN)c3ncc(CO)s3)[nH]2)cc1F`, the IC50 came to 0.47 µM in data set [1] and 0.2 µM in data set [2]. In addition, the CC50 with TZM came out at 33.2 µM; with MT2, 27 µM.
As to `NC[C@@H](NC(=O)c1ccc(-c2ccc(C(F)(F)F)c(F)c2)[nH]1)c1nc(CO)c(CO)s1`, the figures for the IC50 in data set [1] and in data set [2] were 1.8 µM and 2 µM, respectively. In addition, the CC50 in the data set on TZM is above 65.4 µM; in the data set on MT2, 72.4 µM.
In the case of `NC[C@H](NC(=O)c1ccc(-c2ccc(C(F)(F)F)cc2)[nH]1)c1ncc(CO)s1`, the CC50 in the data set with TZM came to 35.6 µM; in the data set on MT2, 36 µM.
Regarding `NC[C@H](NC(=O)c1ccc(-c2ccc(C(F)(F)F)cc2)[nH]1)c1nc(CO)cs1`, the IC50 in data set [1] came to 0.47 µM; in data set [2], 0.3 µM. Further, the CC50 was 24.4 µM with TZM and 16.3 µM in the data set with MT2.
For `NC[C@@H](NC(=O)c1ccc(-c2cc(F)c(Cl)c(F)c2)[nH]1)c1nc(CO)cs1`, the CC50 in the data set with TZM turned out to be 27.7 µM; in the data set with MT2, 29.6 µM.
For the molecule `COC(C)(C)c1csc([C@@H](CN)NC(=O)c2ccc(-c3cc(F)c(Cl)c(F)c3)[nH]2)n1`, the IC50 in data set [1] was found to be 9.3 µM; in data set [2], 6.1 µM. The figures for the CC50 in the data set on TZM and with MT2 were 39.6 µM and 29.5 µM, respectively.
On to `CNC[C@H](NC(=O)c1ccc(-c2cc(F)c(Cl)c(F)c2)[nH]1)c1nc(CO)cs1`, for which the IC50 amounted to 0.23 µM in data set [1] and 0.18 µM in data set [2]. Further, the CC50 in the data set on TZM was found to be 18 µM; in the data set with MT2, 18.8 µM.
As for `Cc1c(F)cc(-c2ccc(C(=O)N[C@@H](CN)c3nc(CO)cs3)[nH]2)cc1F`, the IC50 in data set [1] and in data set [2] was 0.18 µM throughout. The results for the CC50 in the data set with TZM and in the data set with MT2 were 18.5 µM and 25.5 µM, respectively.
As to `Cc1c(F)cc(-c2ccc(C(=O)N[C@H](CN)c3ncc(CO)s3)[nH]2)cc1F`, the IC50 in data set [1] and in data set [2] was 0.2 µM each time. Moreover, the CC50 in the data set on TZM came out at 32.9 µM; in the data set on MT2, 26.8 µM.
`CNC[C@H](NC(=O)c1ccc(-c2ccc(C(F)(F)F)cc2)[nH]1)c1nc(CO)cs1`: the IC50 in data set [1] was 0.31 µM; in data set [2], 0.1 µM. Also, the CC50 with TZM is 22.4 µM; in the data set on MT2, 17 µM.
